Experimental data taken from patent US20100317647A1 (priority 2009, published 2010).

Target: human Cat S (Homo sapiens, UniProt P25774)
Test: Cathepsin enzyme inhibition assay (fluorogenic peptide substrate cleavage)
Format: biochemical
Settings: human Cat S 1 nM; substrate Z-Val-Val-Arg-AMC 20 μM; pH 6.5; fluorescence over 20 minutes
Procedure, shortened: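 IC50 values derived from fluorescence increase (ex 360 nm, em 465 nm) monitored for 20 minutes after substrate addition. Enzyme held at 1 nM with 20 μM Z-Val-Val-Arg-AMC, in pH 6.5 potassium phosphate buffer containing DTT, EDTA and Triton X-100.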

human Cat S, sequence (P25774 115-331): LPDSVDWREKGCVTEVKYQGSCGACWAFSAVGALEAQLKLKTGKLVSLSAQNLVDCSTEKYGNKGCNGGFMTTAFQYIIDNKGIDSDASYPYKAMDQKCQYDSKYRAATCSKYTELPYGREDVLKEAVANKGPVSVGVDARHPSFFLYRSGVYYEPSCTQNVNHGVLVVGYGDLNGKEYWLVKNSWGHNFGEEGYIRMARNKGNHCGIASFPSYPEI

SMILES: N#CC1(NC(=O)[C@@H]2C[C@@H](S(=O)(=O)c3ccc(F)cc3Cl)C[C@H]2COc2ccncc2)CC1 [Example 163, (1R,2R,4S)-4-(2-Chloro-4-fluoro-benzenesulfonyl)-2-(pyridin-4-yloxymethyl)-cyclopentanecarboxylic acid (1-cyano-cyclopropyl)-amide]
- IC50: 11100 pM

SMILES: N#CCNC(=O)[C@@H]1C[C@@H](S(=O)(=O)c2cccc3ccccc23)C[C@H]1C(=O)N1CCOCC1 [Example 36, (1R,2R,4R)-2-(Morpholine-4-carbonyl)-4-(naphthalene-1-sulfonyl)-cyclopentanecarboxylic acid cyanomethyl-amide]
- IC50: 400 pM

SMILES: CO[C@@H]1C[C@H](S(=O)(=O)c2ccc(-c3nc(C)cs3)cc2C(F)(F)F)C[C@H]1C(=O)NC1(C#N)CC1 (racemic) [Example 61, (1R,2R,4R) and (1S,2S,4S)-2-Methoxy-4-[4-(4-methyl-thiazol-2-yl)-2-trifluoromethyl-benzenesulfonyl]-cyclopentanecarboxylic acid (1-cyano-cyclopropyl)-amide]
- IC50: 300 pM

SMILES: Cn1cc(-c2ccc(S(=O)(=O)[C@H]3C[C@@H](OC4CCOCC4)[C@H](C(=O)NC4(C#N)CC4)C3)c(C(F)(F)F)c2)cn1 (racemic) [Example 173, (1R,2R,4R) and (1S,2S,4S)-4-[4-(1-Methyl-1H-pyrazol-4-yl)-2-trifluoromethyl-benzenesulfonyl]-2-(tetrahydro-pyran-4-yloxy)-cyclopentanecarboxylic acid (1-cyano-cyclopropyl)-amide]
- IC50: 217 pM

SMILES: N#CC1(NC(=O)[C@H]2CC[C@H](S(=O)(=O)c3ccc(N4CC5(COC5)C4)cc3Cl)C2)CC1 (racemic) [Example 95, (1S,3S) and (1R,3R)-3-[2-chloro-4-(2-oxa-6-aza-spiro[3.3]hept-6-yl)-benzenesulfonyl]-cyclopentanecarboxylic acid (1-cyano-cyclopropyl)-amide]
- IC50: 140000 pM

SMILES: CCO[C@@H]1C[C@H](S(=O)(=O)c2ccc(Br)cc2C(F)(F)F)C[C@H]1C(=O)NC1(C#N)CC1 (racemic) [Example 113, (1R,2R,4R) and (1S,2S,4S)-4-(4-Bromo-2-trifluoromethyl-benzenesulfonyl)-2-ethoxy-cyclopentanecarboxylic acid (1-cyano-cyclopropyl)-amide]
- IC50: 1100 pM

SMILES: N#CC1(NC(=O)[C@@H]2C[C@H](S(=O)(=O)c3ccccn3)C[C@H]2C(=O)N2CCC(F)(F)C2)CC1 [Example 228, (1R,2R,4S)-2-(3,3-Difluoro-pyrrolidine-1-carbonyl)-4-(pyridine-2-sulfonyl)-cyclopentanecarboxylic acid (1-cyano-cyclopropyl)-amide]
- IC50: 91000 pM

SMILES: CC(C)O[C@@H]1C[C@H](S(=O)(=O)c2ccc(-c3cnn(C)c3)cc2C(F)(F)F)C[C@H]1C(=O)NC1(C#N)CC1 (racemic) [Example 142, (1R,2R,4R) and (1S,2S,4S)-2-Isopropoxy-4-[4-(1-methyl-1H-pyrazol-4-yl)-2-trifluoromethyl-benzenesulfonyl]-cyclopentanecarboxylic acid (1-cyano-cyclopropyl)-amide]
- IC50: 200 pM

SMILES: CO[C@@H]1C[C@H](S(=O)(=O)c2ccc(-n3cccn3)cc2Cl)C[C@H]1C(=O)NC1(C#N)CC1 (racemic) [Example 59, (1R,2R,4R) and (1S,2S,4S)-4-(2-Chloro-4-pyrazol-1-yl-benzenesulfonyl)-2-methoxy-cyclopentanecarboxylic acid (1-cyano-cyclopropyl)-amide]
- IC50: 4000 pM

SMILES: COc1cncc(-c2ccc(S(=O)(=O)[C@H]3C[C@@H](OC)[C@H](C(=O)NC4(C#N)CC4)C3)c(C(F)(F)F)c2)c1 (racemic) [Example 86, (1R,2R,4R) and (1S,2S,4S)-2-Methoxy-4-[4-(5-methoxy-pyridin-3-yl)-2-trifluoromethyl-benzenesulfonyl]-cyclopentanecarboxylic acid (1-cyano-cyclopropyl)-amide]
- IC50: 500 pM

SMILES: CO[C@@H]1C[C@H](S(=O)(=O)c2ccc(-c3cnccn3)cc2C(F)(F)F)C[C@H]1C(=O)NC1(C#N)CC1 (racemic) [Example 111, (1R,2R,4R) and (1S,2S,4S)-2-Methoxy-4-(4-pyrazin-2-yl-2-trifluoromethyl-benzenesulfonyl)-cyclopentanecarboxylic acid (1-cyano-cyclopropyl)-amide]
- IC50: 400 pM

SMILES: N#CC1(NC(=O)[C@@H]2C[C@@H](S(=O)(=O)c3ccccc3)C[C@H]2C(=O)N2CCCCC2)CC1 [Example 12, (1R,2R,4R)-4-Benzenesulfonyl-2-(piperidine-1-carbonyl)-cyclopentanecarboxylic acid (1-cyano-cyclopropyl)-amide]
- IC50: 800 pM

SMILES: N#CC1(NC(=O)[C@@H]2C[C@@H](S(=O)(=O)c3ccccc3C(F)(F)F)C[C@H]2OC2CCOCC2)CC1 (racemic) [Example 175, (1R,2R,4R) and (1S,2S,4S)-2-(Tetrahydro-pyran-4-yloxy)-4-(2-trifluoromethyl-benzenesulfonyl)-cyclopentanecarboxylic acid (1-cyano-cyclopropyl)-amide]
- IC50: 480 pM

SMILES: N#CC1(NC(=O)[C@@H]2C[C@@H](S(=O)(=O)c3ccc(Br)cc3C(F)(F)F)C[C@H]2C(=O)N2CC(F)(F)C2)CC1 [Example 117, (1R,2R,4R)-4-(4-Bromo-2-trifluoromethyl-benzenesulfonyl)-2-(3,3-difluoro-azetidine-1-carbonyl)-cyclopentanecarboxylic acid (1-cyano-cyclopropyl)-amide]
- IC50: 1100 pM

SMILES: CO[C@@H]1C[C@H](S(=O)(=O)c2ccc(-c3ccc(C)nc3)cc2C(F)(F)F)C[C@H]1C(=O)NC1(C#N)CC1 (racemic) [Example 81, (1R,2R,4R) and (1S,2S,4S)-2-Methoxy-4-[4-(6-methyl-pyridin-3-yl)-2-trifluoromethyl-benzenesulfonyl]-cyclopentanecarboxylic acid (1-cyano-cyclopropyl)-amide]
- IC50: 600 pM

SMILES: N#CC1(NC(=O)C2CC(S(=O)(=O)c3ccc(N4CCC(F)(F)C4)cc3C(F)(F)F)CC2C(=O)N2CC(F)(F)C2)CC1 (stereo not shown) [Example 132, 2-(3,3-Difluoro-azetidine-1-carbonyl)-4-[4-(3,3-difluoro-pyrrolidin-1-yl)-2-trifluoromethyl-benzenesulfonyl]-cyclopentanecarboxylic acid (1-cyano-cyclopropyl)-amide]
- IC50: 1200 pM

SMILES: N#CC1(NC(=O)[C@@H]2C[C@@H](S(=O)(=O)c3ccc(F)cc3C(F)(F)F)C[C@H]2C(=O)N2CC(F)(F)C2)CC1 [Example 118, (1R,2R,4R)-2-(3,3-Difluoro-azetidine-1-carbonyl)-4-(4-fluoro-2-trifluoromethyl-benzenesulfonyl)-cyclopentanecarboxylic acid (1-cyano-cyclopropyl)-amide]
- IC50: 3000 pM

SMILES: CC(C)(C)N1CCN(c2ccc(S(=O)(=O)[C@@H]3C[C@@H](C(=O)NC4(C#N)CC4)[C@H](C(=O)N4CC(F)(F)C4)C3)c(C(F)(F)F)c2)CC1 [Example 130, (1R,2R,4R)-4-[4-(4-tert-Butyl-piperazin-1-yl)-2-trifluoromethyl-benzenesulfonyl]-2-(3,3-difluoro-azetidine-1-carbonyl)-cyclopentanecarboxylic acid (1-cyano-cyclopropyl)-amide]
- IC50: 400 pM

SMILES: CO[C@@H]1C[C@H](S(=O)(=O)c2ccc(-c3ccc(F)cc3)cc2C(F)(F)F)C[C@H]1C(=O)NC1(C#N)CC1 (racemic) [Example 63, (1R,2R,4R) and (1S,2S,4S)-4-(4′-Fluoro-3-trifluoromethyl-biphenyl-4-sulfonyl)-2-methoxy-cyclopentanecarboxylic acid (1-cyano-cyclopropyl)-amide]
- IC50: 1300 pM

SMILES: N#CC1(NC(=O)[C@@H]2C[C@@H](S(=O)(=O)c3ccc(N4CCN(C5CC5)CC4)cc3C(F)(F)F)C[C@H]2C(=O)N2CC(F)(F)C2)CC1 [Example 129, (1R,2R,4R)-4-[4-(4-Cyclopropyl-piperazin-1-yl)-2-trifluoromethyl-benzenesulfonyl]-2-(3,3-difluoro-azetidine-1-carbonyl)-cyclopentanecarboxylic acid (1-cyano-cyclopropyl)-amide]
- IC50: 600 pM

SMILES: CC(=O)N1CCN(c2ccc(S(=O)(=O)[C@@H]3C[C@@H](C(=O)NC4(C#N)CC4)[C@H](C(=O)N4CC(F)(F)C4)C3)c(Cl)c2)CC1 [Example 166, (1R,2R,4R)-4-[4-(4-Acetyl-piperazin-1-yl)-2-chloro-benzenesulfonyl]-2-(3,3-difluoro-azetidine-1-carbonyl)-cyclopentanecarboxylic acid (1-cyano-cyclopropyl)-amide]
- IC50: 600 pM

SMILES: N#CC1(NC(=O)[C@@H]2C[C@@H](S(=O)(=O)c3ccccc3Cl)C[C@H]2OCc2ccc(Br)cc2)CC1 (racemic) [Example 154, (1R,2R,4R) and (1S,2S,4S)-2-(4-Bromo-benzyloxy)-4-(2-chloro-benzenesulfonyl)-cyclopentanecarboxylic acid (1-cyano-cyclopropyl)-amide]
- IC50: 7550 pM

SMILES: Cn1nccc1-c1ccc(S(=O)(=O)[C@@H]2C[C@@H](C(=O)NC3(C#N)CC3)[C@H](C(=O)N3CC(F)(F)C3)C2)c(C(F)(F)F)c1 [Example 124, (1R,2R,4R)-2-(3,3-Difluoro-azetidine-1-carbonyl)-4-[4-(2-methyl-2H-pyrazol-3-yl)-2-trifluoromethyl-benzenesulfonyl]-cyclopentanecarboxylic acid (1-cyano-cyclopropyl)-amide]
- IC50: 200 pM

SMILES: CO[C@@H]1C[C@H](S(=O)(=O)c2ccc(-c3ccc(F)cn3)cc2C(F)(F)F)C[C@H]1C(=O)NC1(C#N)CC1 (racemic) [Example 30, (1R,2R,4R) and (1S,2S,4S)-4-[4-(5-Fluoro-pyridin-2-yl)-2-trifluoromethyl-benzenesulfonyl]-2-methoxy-cyclopentanecarboxylic acid (1-cyano-cyclopropyl)-amide]
- IC50: 1000 pM

SMILES: N#CC1(NC(=O)[C@@H]2C[C@@H](S(=O)(=O)c3ccccc3C(F)(F)F)C[C@H]2OC2CCC2)CC1 (racemic) [Example 220, (1R,2R,4R) and (1S,2S,4S)-2-Cyclobutoxy-4-(2-trifluoromethyl-benzenesulfonyl)-cyclopentanecarboxylic acid (1-cyano-cyclopropyl)-amide]
- IC50: 3600 pM
